Data from patent US20230227838A1, “ENHANCED CELL SURVIVAL AGAINST BIOTIC AND ABIOTIC STRESSES THROUGH SALICYLICK ACID-INDUCED NPR1 CONDENSATES” (priority 2020, published 2023).

Legend:
Psm ES4326/AvrRpt2 = experiment: Bacterial growth assay in infected leaves; type: in vivo, Arabidopsis thaliana; conditions: SA pretreatment at 0.5 and 1 mM; WT plants, not in npr1-2 mutant
Source text: (§1) Chemical treatment, pathogen infection and cell death assays. […] At 2 days, the bacterial colonies were scored.

[1] = system: Psm ES4326/AvrRpt2-mediated cell death; experiment: Cell death (conductivity/electrolyte leakage, trypan blue) after Psm ES4326/AvrRpt2 inoculation; type: in vivo, Arabidopsis thaliana; conditions: SA pretreatment at 0.5 and 1 mM; WT plants, not in npr1-2 mutant
Procedure: as §1
Trypan blue staining. Leaves of three-week-old Arabidopsis infected with Psm ES4326/AvrRpt2 were sampled at 1 dpi, boiled in 95% ethanol until completely bleached, followed by boiling for 3 min in a 1:1 mixture of 95% ethanol and staining solution (10 ml lactic acid, 10 ml glycerol, 10 g phenol and 10 mg trypan blue, dissolved in 10 ml DDW). The leaves were then de-stained in 2.5 g/ml chloral hydrate solution and transferred to 70% glycerol for subsequent imaging.

ETI activated by RPS4 = experiment: Cell death after Pf Pf0-1/AvrRps4 inoculation (conductivity assay); type: in vivo, Arabidopsis thaliana; conditions: SA/NPR1-mediated
Source text: as §1

WRKY70-GFP = experiment: Stability and ubiquitination of WRKY70-GFP; type: in vivo, Arabidopsis thaliana
Procedure: as §1
Protein analysis and IP. Recombinant protein analysis was performed using transient expression in N. benthamiana, or stable over-expression in transgenic Arabidopsis, or expression in E. coli. Total protein extraction from plants was performed by homogenizing leaf tissue in the plant extraction buffer [50 mM Tris-HCl (pH 7.5), 150 mM NaCl, 5 mM EDTA, 0.2% Triton X-100, 0.2% Nonidet P-40] supplemented with 1 mM PMSF, 100 μM MG132, and EDTA-free protease inhibitor cocktail (Roche). For ubiquitinated protein analysis in plants, 100 μM of DUB (deubiquitinase) inhibitor (LifeSensors) and 10 mM NEM were added. Next, the lysates were cleared by centrifugation at 14,000 rpm for 15 min followed by filtering through a 0.2 μm filter. […] Pull-downs or IP experiments were done on total protein extracts by incubating protein samples in the lysis buffer overnight with indicated affinity tag or antibody conjugated to agarose or magnetic beads: GFP-trap agarose beads (Chromotek) for GFP fusions; RFP-trap agarose beads (Chromotek) for mCherry fusions; anti-HA magnetic beads (ThermoFisher) for HA tag fusions; anti-DYKDDDDK coupled magnetic agarose (ThermoFisher) for FLAG tag fusions; and glutathione magnetic agarose (ThermoFisher) for GST fusions. […]

endogenous NPR1 = target: T1, endogenous NPR1 (Arabidopsis thaliana, UniProt P93002); experiment: Cell fractionation of endogenous NPR1 (cytoplasmic/nuclear); type: in vivo; conditions: 6 hr, Col-0
T1 construct: from tissue; host or cells: leaf tissue of three-week-old Arabidopsis Col-0 plants
T1 sequence (P93002 1-593): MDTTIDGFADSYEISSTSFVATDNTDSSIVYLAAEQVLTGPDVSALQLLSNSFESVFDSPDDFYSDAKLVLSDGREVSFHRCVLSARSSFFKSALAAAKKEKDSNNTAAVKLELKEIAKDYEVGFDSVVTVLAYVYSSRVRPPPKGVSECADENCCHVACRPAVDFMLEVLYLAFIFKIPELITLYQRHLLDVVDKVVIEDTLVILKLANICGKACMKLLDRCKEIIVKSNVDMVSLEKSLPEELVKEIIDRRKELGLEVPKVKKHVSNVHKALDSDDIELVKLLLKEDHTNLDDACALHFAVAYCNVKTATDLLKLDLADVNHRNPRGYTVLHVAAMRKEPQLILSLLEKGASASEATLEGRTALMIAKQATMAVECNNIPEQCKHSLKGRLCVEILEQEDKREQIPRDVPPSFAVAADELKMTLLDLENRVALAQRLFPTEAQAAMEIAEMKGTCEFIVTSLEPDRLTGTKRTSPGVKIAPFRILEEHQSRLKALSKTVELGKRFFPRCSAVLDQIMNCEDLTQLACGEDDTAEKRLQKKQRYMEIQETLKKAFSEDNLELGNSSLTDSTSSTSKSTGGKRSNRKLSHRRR
Procedure: Cell fractionation. Cytoplasmic and nuclear proteins were sequentially isolated from three-week-old Arabidopsis (Col-0) plants using 1 g of leaf tissue and a sucrose gradient protocol described previously with modifications. Tissue was homogenized in lysis buffer (20 mM Tris-HCl, pH 7.5, 20 mM KCl, 2 mM EDTA, 2.5 mM MgCl2, 25% glycerol, 0.25 M Sucrose) supplemented with 100 μM MG132, EDTA-free protease inhibitor cocktail, 1 mM PMSF and 5 mM DTT. The lysate was filtered through a 70 μm filter and centrifuged at 20,000 g for 15 min at 4° C., and the supernatant was collected (cytoplasmic fraction). The pellet was washed four times with 5 ml of NRBT buffer (20 mM Tris-HCl, pH 7.4, 25% glycerol, 2.5 mM MgCl2, and 0.2% Triton X-100). After the last wash, the pellet was resuspended with 500 μl of NRB2 buffer (20 mM Tris-HCl, pH 7.5, 0.25 M Sucrose, 10 mM MgCl2, 0.5% Triton X-100) supplemented with protease inhibitor cocktail and 5 mM BME. The obtained suspension was layered at 1:1 on top of the NRB3 buffer (20 mM Tris-HCl, pH 7.5, 1.7 M Sucrose, 10 mM MgCl2, 0.5% Triton X-100) supplemented with protease inhibitor cocktail and 5 mM BME, centrifuged at 16,000 g for 45 min at 4° C. The top layer was removed and the pellet was resuspended with 200 μl of plant extraction buffer containing 1% Triton X-100, protease inhibitor cocktail and 5 mM BME (nuclear fraction). […]

SMILES: O=C(O)c1ccccc1O [SA, salicylic acid]
- pathogen growth (Psm ES4326/AvrRpt2): increased pathogen growth
- Psm ES4326/AvrRpt2-mediated cell death [1]: fully suppress
- ETI activated by RPS4 (effector AvrRps4) (ETI activated by RPS4): inhibition
- ubiquitination of WRKY70-GFP (WRKY70-GFP; 1 mM SA for 24 h, WT, not npr1-2): increased ubiquitination of WRKY70-GFP
- WRKY70-GFP protein level (WRKY70-GFP; 1 mM SA for 24 hr, NPR1- and proteasome-dependent): reduced
- subcellular accumulation of endogenous NPR1 (endogenous NPR1; 1 mM SA): more NPR1 accumulated in the cytoplasm
- subcellular accumulation of endogenous NPR1 (endogenous NPR1; 0.1 and 0.5 mM SA): increased nuclear accumulation
